Data published in US12662489B2 (Sitryx Therapeutics Limited, priority 2023, dated 2026).

Columns and labels:
[1] = target: T1, MTHFD1 recombinant human enzyme (Homo sapiens, UniProt P11586); assay: MTHFD1 inhibition assay (NAD(P)H-Glo luminescence); conditions: MTHFD1 IC50, recombinant human enzyme 200 nM, NADP, band
T1 sequence (P11586 2-291 limits assumed): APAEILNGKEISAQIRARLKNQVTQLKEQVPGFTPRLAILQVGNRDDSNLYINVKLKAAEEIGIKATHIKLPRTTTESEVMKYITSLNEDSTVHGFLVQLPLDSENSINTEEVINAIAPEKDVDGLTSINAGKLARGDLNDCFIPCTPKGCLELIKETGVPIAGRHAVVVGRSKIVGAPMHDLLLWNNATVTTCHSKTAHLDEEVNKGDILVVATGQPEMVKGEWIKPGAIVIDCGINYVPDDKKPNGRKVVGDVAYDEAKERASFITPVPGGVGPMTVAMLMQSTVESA

[2] = target: T2, MTHFD2 recombinant human enzyme (Homo sapiens, UniProt P13995); assay: MTHFD2 inhibition assay (NAD(P)H-Glo luminescence); conditions: for MTHFD1/MTHFD2 IC50 ratio: selectivity of MTHFD2 inhibition over MTHFD1, band
T2 sequence (P13995 36-350): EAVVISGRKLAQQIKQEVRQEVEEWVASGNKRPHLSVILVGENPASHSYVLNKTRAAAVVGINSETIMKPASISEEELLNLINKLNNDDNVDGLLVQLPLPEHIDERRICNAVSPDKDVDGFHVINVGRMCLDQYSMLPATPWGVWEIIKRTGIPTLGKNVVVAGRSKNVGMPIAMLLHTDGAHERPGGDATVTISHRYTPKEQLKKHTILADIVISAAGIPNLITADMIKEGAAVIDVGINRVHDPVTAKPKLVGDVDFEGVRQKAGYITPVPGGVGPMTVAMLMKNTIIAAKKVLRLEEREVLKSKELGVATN

IC50 [1] [nM] | IC50 [2] [nM] | MTHFD1/MTHFD2 IC50 ratio [2] | Structure (SMILES)
1 to 10 | 1 to 10 | F (<3) | COC[C@H]1CN(c2ccc3c4c(c(=O)oc3c2C)CN(C(=O)c2cc(F)c(C(=O)NS(=O)(=O)C3(C)CC3)c(N3CC5CC5C3)c2)CC4)CCN1C (stereo partly drawn) [Example 26, 2-(3-azabicyclo[3.1.0]hexan-3-yl)-6-fluoro-4-(8-((R)-3-(methoxymethyl)-4-methylpiperazin-1-yl)-7-methyl-5-oxo-1,3,4,5-tetrahydro-2H-chromeno[3,4-c]pyridine-3-carbonyl)-N-((1-methylcyclopropyl)sulfonyl)benzamide]
100 to 1000 | 10 to 100 | H (>9.0 to 30) | COC[C@H]1CN(c2cc(C)c3c4c(c(=O)oc3c2C)CN(C(=O)c2ccc(C(=O)NS(=O)(=O)N3CCCC3)c(N(C)C3CCC3)c2)CC4)CCN1C [Example 200, (R)-2-(cyclobutyl(methyl)amino)-4-(8-(3-(methoxymethyl)-4-methylpiperazin-1-yl)-7,10-dimethyl-5-oxo-1,3,4,5-tetrahydro-2H-chromeno[3,4-c]pyridine-3-carbonyl)-N-(pyrrolidin-1-ylsulfonyl)benzamide]
10 to 100 | 10 to 100 | F (<3) | COC[C@H]1CN(c2cc(C)c3c4c(c(=O)oc3c2C)CN(C(=O)c2ccc(C(=O)NS(=O)(=O)N3CCCC3)c(N3CC5CCC3C5)c2)CC4)CCN1C (stereo partly drawn) [Example 115, 2-(2-azabicyclo[2.2.1]heptan-2-yl)-4-(8-((R)-3-(methoxymethyl)-4-methylpiperazin-1-yl)-7,10-dimethyl-5-oxo-1,3,4,5-tetrahydro-2H-chromeno[3,4-c]pyridine-3-carbonyl)-N-(pyrrolidin-1-ylsulfonyl)benzamide]
10 to 100 | 1 to 10 | G (^ 3 to 9.0) | COC[C@H]1CN(c2cc(C)c3c4c(c(=O)oc3c2C)CN(C(=O)c2ccc(C(=O)NS(=O)(=O)N(C)C)c(N3CCCC3)c2F)CC4)CCN1C [Example 70, (R)-N-(N,N-dimethylsulfamoyl)-3-fluoro-4-(8-(3-(methoxymethyl)-4-methylpiperazin-1-yl)-7,10-dimethyl-5-oxo-1,3,4,5-tetrahydro-2H-chromeno[3,4-c]pyridine-3-carbonyl)-2-(pyrrolidin-1-yl)benzamide]
1 to 10 | 1 to 10 | F (<3) | COC[C@H]1CN(c2ccc3c4c(c(=O)oc3c2Cl)CN(C(=O)c2ccc(C(=O)NS(=O)(=O)C3(C)CC3)c(O[C@@H]3C[C@@H]5C[C@@H]5C3)c2F)CC4)CCN1C [Example 60, 2-(((1R,3r,5S)-bicyclo[3.1.0]hexan-3-yl)oxy)-4-(7-chloro-8-((R)-3-(methoxymethyl)-4-methylpiperazin-1-yl)-5-oxo-1,3,4,5-tetrahydro-2H-chromeno[3,4-c]pyridine-3-carbonyl)-3-fluoro-N-((1-methylcyclopropyl)sulfonyl)benzamide]
100 to 1000 | 10 to 100 | H (>9.0 to 30) | COC[C@H]1CN(c2ccc3c4c(c(=O)oc3c2C)CN(C(=O)c2cc(Cl)c(C(=O)NS(=O)(=O)N(C)C)c(N3CC5CC5C3)c2)CC4)CCN1C (stereo partly drawn) [Example 33, 2-(3-azabicyclo[3.1.0]hexan-3-yl)-6-chloro-N-(N,N-dimethylsulfamoyl)-4-(8-((R)-3-(methoxymethyl)-4-methylpiperazin-1-yl)-7-methyl-5-oxo-1,3,4,5-tetrahydro-2H-chromeno[3,4-c]pyridine-3-carbonyl)benzamide]
1 to 10 | 1 to 10 | F (<3) | COC[C@H]1CN(c2ccc3c4c(c(=O)oc3c2C)CN(C(=O)c2ccc(C(=O)NS(=O)(=O)N(C)C(C)C)c(O[C@@H]3C[C@@H]5C[C@@H]5C3)c2F)CC4)CCN1C [Example 64, 2-(((1R,3r,5S)-bicyclo[3.1.0]hexan-3-yl)oxy)-3-fluoro-N-(N-isopropyl-N-methylsulfamoyl)-4-(8-((R)-3-(methoxymethyl)-4-methylpiperazin-1-yl)-7-methyl-5-oxo-1,3,4,5-tetrahydro-2H-chromeno[3,4-c]pyridine-3-carbonyl)benzamide]
10 to 100 | 10 to 100 | F (<3) | CCOc1c(C(=O)NS(=O)(=O)N2CC3CC3C2)ccc(C(=O)N2CCc3c(c(=O)oc4c(CC)c(N5CCN(C)[C@@H](COC)C5)ccc34)C2)c1F (stereo partly drawn) [Example 214, N-((3-azabicyclo[3.1.0]hexan-3-yl)sulfonyl)-2-ethoxy-4-(7-ethyl-8-((R)-3-(methoxymethyl)-4-methylpiperazin-1-yl)-5-oxo-1,3,4,5-tetrahydro-2H-chromeno[3,4-c]pyridine-3-carbonyl)-3-fluorobenzamide]
10 to 100 | 10 to 100 | F (<3) | COC[C@H]1CN(c2cc(C)c3c4c(c(=O)oc3c2C)CN(C(=O)c2ccc(C(=O)NS(=O)(=O)N(C)C)c(N3CCC[C@H]3C)c2)CC4)CCN1C [Example 102, N-(N,N-dimethylsulfamoyl)-4-(8-((R)-3-(methoxymethyl)-4-methylpiperazin-1-yl)-7,10-dimethyl-5-oxo-1,3,4,5-tetrahydro-2H-chromeno[3,4-c]pyridine-3-carbonyl)-2-((R)-2-methylpyrrolidin-1-yl)benzamide]
1000 to 5000 | 10 to 100 | J (>30) | COC[C@H]1CN(c2cc(C)c3c4c(c(=O)oc3c2C)CN(C(=O)c2cc(OC(C)C)c(C(=O)NS(=O)(=O)N3CCCC3)c(C(F)(F)F)c2)CC4)CCN1C [Example 161, (R)-2-isopropoxy-4-(8-(3-(methoxymethyl)-4-methylpiperazin-1-yl)-7,10-dimethyl-5-oxo-1,3,4,5-tetrahydro-2H-chromeno[3,4-c]pyridine-3-carbonyl)-N-(pyrrolidin-1-ylsulfonyl)-6-(trifluoromethyl)benzamide]
100 to 1000 | 100 to 1000 | G (^ 3 to 9.0) | COC[C@H]1CN(c2ccc3c4c(c(=O)oc3c2C)CN(C(=O)c2ccc(C(=O)NS(=O)(=O)N3CCCC3)c(N(C)C)c2F)CC4)CCN1C [Example 139, (R)-2-(dimethylamino)-3-fluoro-4-(8-(3-(methoxymethyl)-4-methylpiperazin-1-yl)-7-methyl-5-oxo-1,3,4,5-tetrahydro-2H-chromeno[3,4-c]pyridine-3-carbonyl)-N-(pyrrolidin-1-ylsulfonyl)benzamide]
1 to 10 | 10 to 100 | F (<3) | COC[C@H]1CN(c2cc(C)c3c4c(c(=O)oc3c2C)CN(C(=O)c2ccc(C(=O)NS(=O)(=O)C3(C)CC3)c(N3CCC[C@@H]3C)c2)CC4)CCN1C [Example 125, 4-(8-((R)-3-(methoxymethyl)-4-methylpiperazin-1-yl)-7,10-dimethyl-5-oxo-1,3,4,5-tetrahydro-2H-chromeno[3,4-c]pyridine-3-carbonyl)-N-((1-methylcyclopropyl)sulfonyl)-2-((S)-2-methylpyrrolidin-1-yl)benzamide]

Structure (SMILES) | IC50 [1] [nM] | IC50 [2] [nM] | MTHFD1/MTHFD2 IC50 ratio [2]
COC[C@H]1CN(c2ccc3c4c(c(=O)oc3c2C)CN(C(=O)c2ccc(C(=O)NS(=O)(=O)N3CCCC3)c(OC3CCC3)c2F)CC4)CCN1C(C)C [Example 170, (R)-2-cyclobutoxy-3-fluoro-4-(8-(4-isopropyl-3-(methoxymethyl)piperazin-1-yl)-7-methyl-5-oxo-1,3,4,5-tetrahydro-2H-chromeno[3,4-c]pyridine-3-carbonyl)-N-(pyrrolidin-1-ylsulfonyl)benzamide] | 100 to 1000 | 10 to 100 | G (^ 3 to 9.0)
COC[C@H]1CN(c2cc(C)c3c4c(c(=O)oc3c2C)CN(C(=O)c2ccc(OC3CCC3)c(C(=O)NS(=O)(=O)N3CCCC3)c2)CC4)CCN1C [Example 163, (R)-2-cyclobutoxy-5-(8-(3-(methoxymethyl)-4-methylpiperazin-1-yl)-7,10-dimethyl-5-oxo-1,3,4,5-tetrahydro-2H-chromeno[3,4-c]pyridine-3-carbonyl)-N-(pyrrolidin-1-ylsulfonyl)benzamide] | > 5000 | 100 to 1000 | H (>9.0 to 30)
CCN1CCN(c2ccc3c4c(c(=O)oc3c2C)CN(C(=O)c2ccc(C(=O)NS(=O)(=O)N3CCCC3)c(OC3CCC3)c2F)CC4)C[C@@H]1COC [Example 172, (R)-2-cyclobutoxy-4-(8-(4-ethyl-3-(methoxymethyl)piperazin-1-yl)-7-methyl-5-oxo-1,3,4,5-tetrahydro-2H-chromeno[3,4-c]pyridine-3-carbonyl)-3-fluoro-N-(pyrrolidin-1-ylsulfonyl)benzamide] | 10 to 100 | 10 to 100 | F (<3)
COC[C@H]1CN(c2cc(C)c3c4c(c(=O)oc3c2C)CN(C(=O)c2ccc(C(=O)NS(=O)(=O)C3(C)CC3)c(OC3CCC3)c2C)CC4)CCN1C [Example 180, (R)-2-cyclobutoxy-4-(8-(3-(methoxymethyl)-4-methylpiperazin-1-yl)-7,10-dimethyl-5-oxo-1,3,4,5-tetrahydro-2H-chromeno[3,4-c]pyridine-3-carbonyl)-3-methyl-N-((1-methylcyclopropyl)sulfonyl)benzamide] | 100 to 1000 | 10 to 100 | G (^ 3 to 9.0)
